# Source: paper PMC4770772 (Oncotarget, 2015)
# Changes are numbered by the printed parent chain. Read-outs that look alike come from different tables or passages of the source.
# Experiments:
# ABCG2 [1] = target: T1, ABCG2 (Homo sapiens, UniProt Q9UNQ0); type: biochemical; conditions: membrane vesicles
# T1 construct: membrane vesicles of High Five insect cells overexpressing ABCG2
# T1 sequence (Q9UNQ0 1-655): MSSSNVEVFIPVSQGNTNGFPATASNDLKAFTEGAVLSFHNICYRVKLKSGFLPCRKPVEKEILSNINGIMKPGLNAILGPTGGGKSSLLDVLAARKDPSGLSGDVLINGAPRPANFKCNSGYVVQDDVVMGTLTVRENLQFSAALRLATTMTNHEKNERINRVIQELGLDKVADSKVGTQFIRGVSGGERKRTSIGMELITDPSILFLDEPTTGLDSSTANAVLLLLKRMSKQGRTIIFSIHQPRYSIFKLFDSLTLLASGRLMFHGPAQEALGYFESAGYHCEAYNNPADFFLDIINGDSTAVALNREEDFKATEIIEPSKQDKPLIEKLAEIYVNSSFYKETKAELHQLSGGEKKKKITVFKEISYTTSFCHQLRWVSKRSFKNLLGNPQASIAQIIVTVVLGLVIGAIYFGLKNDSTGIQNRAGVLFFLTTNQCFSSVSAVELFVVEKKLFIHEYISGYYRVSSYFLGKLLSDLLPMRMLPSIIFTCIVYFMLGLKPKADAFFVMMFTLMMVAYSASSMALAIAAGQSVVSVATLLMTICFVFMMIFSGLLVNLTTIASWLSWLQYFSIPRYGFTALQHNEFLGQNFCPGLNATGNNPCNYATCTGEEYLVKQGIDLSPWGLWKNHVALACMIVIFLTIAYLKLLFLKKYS
# ABCG2 [2] = target: T1, ABCG2; assay: vanadate-sensitive ATPase stimulation in membrane vesicles; [3H]-MX efflux from ABCG2-transfected cells; type: biochemical
# ABCG2 [3] = target: T2, ABCG2 (Homo sapiens, UniProt Q9UNQ0, R482G); assay: [3H]-mitoxantrone accumulation in HEK293/R482G cells at […]; type: cell-based
# T2 construct: full-length ABCG2 in HEK293 cells
# T2 sequence (Q9UNQ0 1-655 R482G): T1 sequence (Q9UNQ0 1-655) with R482G
# ABCG2 [4] = target: T3, ABCG2 (Homo sapiens, UniProt Q9UNQ0, R482T); assay: [3H]-mitoxantrone accumulation in HEK293/R482T cells at […]; type: cell-based
# T3 construct: full-length ABCG2 in HEK293 cells
# T3 sequence (Q9UNQ0 1-655 R482T): T1 sequence (Q9UNQ0 1-655) with R482T
# ABCG2 [5] = target: T1, ABCG2; assay: vanadate-sensitive ATPase stimulation in membrane vesicles; also [3H]-mitoxantrone accumulation/efflux inhibition in HEK293/R482 cells; type: biochemical
structure (smiles),measurement,setting,value
CC[C@@]1(O)C(=O)OCc2c1cc1n(c2=O)Cc2cc3c(CN(C)C)c(O)ccc3nc2-1 [topotecan],EC50,ABCG2 [1],2600 nM
O=C1c2c(O)ccc(O)c2C(=O)c2c(NCCNCCO)ccc(NCCNCCO)c21 [mitoxantrone],EC50,ABCG2 [2],2200 nM
COc1cc(NC(=O)c2ccc(-c3ccc(Cl)cc3)o2)cc(OC)c1 [A-803467],[3H]-mitoxantrone accumulation in HEK293/R482G cells at 7.5 μM,ABCG2 [3],"significantly increased intracellular accumulation of [^3H]-MX in ABCG2-expressing cells HEK293/R482, HEK293/R482G and HEK293/R482T cells"
same,[3H]-mitoxantrone accumulation in HEK293/R482T cells at 7.5 μM,ABCG2 [4],"significantly increased intracellular accumulation of [^3H]-MX in ABCG2-expressing cells HEK293/R482, HEK293/R482G and HEK293/R482T cells"
same,EC50,ABCG2 [5],718 nM
